Experimental data from US20070010529A1, “Nitrogenous heterocyclic compounds and medical use thereof” (priority 2003, published 2007).

Key:
[1] = target: recombinant human p38 αMAP kinase (Homo sapiens, UniProt Q16539); assay: Study on p38 αMAP kinase inhibitory activity (ATF-2 phosphorylation, Alpha Screen); format: biochemical; details: phosphorylation of biotinylated ATF2 by recombinant human p38 αMAP kinase, 30° C. for 30 minutes
Protocol: (1) Study on p38 αMAP Kinase Inhibitory Activity
Using activation transcription factor 2 (hereinafter abbreviated as ATF-2) which is a substrate for p38 αMAP kinase, the inhibitory action of the compounds of the present invention was investigated on the phosphorylation by a recombinant human p38 αMAP kinase.
A kinase buffer (25 mM Tris-HCl (pH 7.5), 5 mM β-glycerophosphate, 2 mM dithiothreitol, 0.1 mM Na3VO4, 10 mM MgCl2) containing a recombinant human p38 αMAP kinase was added to a 384-well plate (5 μL)(6.25 μg protein/well) for fluorescence measurement. After addition of a kinase buffer (5 μL) containing the compound of the present invention, the resulting mixture was incubated at room temperature for 20 minutes. A substrate mixture (5 μL) of biotinylated ATF2 of 5 μg/mL (Upstate Biotechnology #14-432), adenosine triphosphate (90 μmol/L)(Sigma #FL-AAS) and anti-phosphorylated ATF2 antibody (20-fold dilution)(Cell Signaling Technology #9221L) prepared separately was added thereto, and enzyme reaction was carried out at 30° C. for 30 minutes. After the reaction, Herpes buffer (5 μL) containing 0.25% BSA and 100 mM EDTA was added to stop the enzyme reaction. The amount of a complex of the phosphorylated ATF2 and anti-phosphorylated ATF2 antibody produced by the reaction was measured using an Alpha Screen™ Rabbit Detection kit (Packard #6760607).
The p38 αMAP kinase inhibitory activity, which is the effect of the compound of the present invention, was calculated as an inhibition rate (%) according to the following equation: Inhibition rate (%)={(AC minus AX)/(AC minus AB)}×100 wherein AB is a measured value without addition of the enzyme; AC is a measured value with addition of the enzyme in the absence of a test compound; and AX is a measured value with addition of the enzyme in the presence of a test compound.
Inhibition rate of compounds with each concentration was calculated, and a value indicating 50% inhibition (IC50) was determined from the inhibition curve.

[2] = test system: TNF-α production in THP-1 (human monocyte cell line); assay: Inhibitory activity against TNF-α production using human cell lines (LPS-stimulated THP-1); format: cell-based; details: 1.5 h, THP-1 cells stimulated by LPS, cultured for 90 minutes, TNF-α by ELISA
Protocol: (2) Inhibitory Activity Against TNF-α Production Using Human Cell Lines
Using THP-1 which is a human monocyte cell line, the inhibitory effect of the compound of the present invention against TNF-α production stimulated by lipopolysaccharide (LPS) was studied.
Each 50 μL of lipopolysaccharide (LPS; Difco #3120-25-0) prepared to a concentration of 40 ng/mL using RPMI-1640 medium containing 10% fetal calf serum (hereinafter abbreviated as RPMI-1640) and RPMI-1640 containing the compound of the present invention was added to a 96-well plate for cell culture. One hundred μL of the cell suspension of THP-1 (Dainippon Pharmaceutical Co., Ltd, #06-202) prepared to a cell density of 2×10^6 cells/mL using RPMI-1640 was added and cultured for 90 minutes at 37° C. in an incubator (5% CO2, 95% air). After completion of the reaction, the culture medium supernatant was recovered and the amount of produced TNF-α was measured using an ELISA kit (Invitrogen, #850090192).
The inhibitory activity against TNF-α production, which is the effect of the compound of the present invention, was calculated as an inhibition rate (%) by the following equation: Inhibition rate (%)={(AC minus AX)/(AC minus AB)}×100 wherein AB is a measured value without LPS induction; AC is a measured value with LPS induction in the absence of a test compound; and AX is a measured value with LPS induction in the presence of a test compound. Inhibition rate of compounds with each concentration was calculated, and a value indicating 50% inhibition (IC50) was determined from the inhibition curve.

Human CYP3A4 = assay: Evaluation of human CYP3A4 induction activity (HepG2 cells, hPXR/CYP3A4 luciferase reporter); format: in vitro ADME; details: concentration of 10 μM, rifampicin (10 μmol/L) set to 100%
Protocol: (4) Evaluation of Human CYP3A4 Induction Activity
HepG2 cells were cultured in a 5% CO2 incubator at 37° C., using a medium [MEM(+)] prepared by adding 1/100-fold amount of non-essential amino acids for MEM Eagle's medium (100×, ICN, #1681049), Antibiotic-Antimycotic (100×, Gibco, #15240-096), L-glutamine 200 mM (100×, Gibco, #25030-081) and 1/10-fold amount of fetal bovine serum (Sigma, #F9423) to a minimum essential medium Eagle (Mod.) with Earle's salts without L-glutamine. The medium was exchanged once every 2 to 3 days. About one-fifth of the cells which were cultured to a confluent state were passaged once a week. HepG2 cells which were cultured to almost confluent state in a 225 cm^2 culture flask were inoculated to a 24-well plate (Iwaki, #3820-024) to a concentration of 5×10^4 cells/MEM(+) of 500 μL/well. […] Twenty μL/well of the prepared cell lysis solution was transferred to a 96-well white plate (Perkin Elmer, #23300), and using a luminometer (Berthold Japan, Microlumat LB96P), each chemical luminescence was measured for 2 to 14 seconds after addition of luciferase assay reagent II [(LARII), 100 μL/well)] and for 2 to 14 seconds after addition of Stop & Glo reagent, 100 μL/well). […]
The CYP3A4 induction activity was calculated by setting a rise in transcription activity of CYP3A4 to 100% when using rifampicin (10 μmol/L) as a positive control drug.

Human CYP2C9 = Human CYP2C9 (Homo sapiens, UniProt P11712); assay: Evaluation of human CYP2C9 inhibitory activity; format: in vitro ADME
Protocol: (5) Evaluation of Human CYP2C9 Inhibitory Activity
The CYP2C9 inhibitory activity of the compound of the present invention was evaluated by enhancing measurement precision and improving measurement sensitivity on the basis of Sato et. al method [Pharmacokinetics, Xenobio. Metabol. and Dispos., 16(2), 115-126 (2001)].

[3] = test system: TNF-α production induced by lipopolysaccharide (LPS); assay: Rat cytokine-production model (LPS-induced TNF-α production in vivo); details: dose of 10 mg/kg orally; LPS 10 μg/kg intravenously after 2.0 hours; plasma ninety minutes after LPS
Protocol: (3) Rat Cytokine-Production Model
The in vivo effect of the compound of the present invention was studied on TNF-α production induced by lipopolysaccharide (LPS) in rats.
A medium containing the compound of the present invention was orally administered to male […] (Charles River Japan, Inc.), and after 2.0 hours, lipopolysaccharide (LPS, 055:B5, Difco) was intravenously administered at the dose of 10 μg/kg (5 animals/group). Only a medium was orally administered to a control group (5 animals). Ninety minutes after the LPS treatment, heparinized blood collection was performed via the abdominal cava vein under anesthesia with ether, and blood plasma was obtained by centrifugation (12,000 rpm, 3 minutes, 4° C.). The obtained blood plasma sample was stored at −80° C. until it was used. TNF-α in the blood plasma was measured using an ELISA kit from Genzyme/Techne (#10516).
The inhibitory activity of the compound of the present invention against TNF-α production was calculated as an inhibition rate (%) according to the following equation: Inhibition rate (%)={(AC minus AX)/AC}×100 wherein AC is a measured value in case where no test compound was administered under LPS induction, and AX is a measured value in case where a test compound was administered under LPS induction.

Sequence of recombinant human p38 αMAP kinase (Q16539 whole entry): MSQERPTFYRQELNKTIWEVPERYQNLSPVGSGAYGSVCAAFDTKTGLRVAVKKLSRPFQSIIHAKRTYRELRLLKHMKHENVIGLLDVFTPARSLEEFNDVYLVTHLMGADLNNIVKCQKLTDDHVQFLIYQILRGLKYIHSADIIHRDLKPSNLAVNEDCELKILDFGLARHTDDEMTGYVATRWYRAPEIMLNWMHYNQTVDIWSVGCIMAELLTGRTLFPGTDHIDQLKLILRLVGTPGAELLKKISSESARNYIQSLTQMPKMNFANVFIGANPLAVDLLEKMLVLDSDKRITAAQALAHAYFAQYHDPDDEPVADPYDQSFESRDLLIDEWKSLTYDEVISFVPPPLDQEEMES
Sequence of Human CYP2C9 (P11712 whole entry): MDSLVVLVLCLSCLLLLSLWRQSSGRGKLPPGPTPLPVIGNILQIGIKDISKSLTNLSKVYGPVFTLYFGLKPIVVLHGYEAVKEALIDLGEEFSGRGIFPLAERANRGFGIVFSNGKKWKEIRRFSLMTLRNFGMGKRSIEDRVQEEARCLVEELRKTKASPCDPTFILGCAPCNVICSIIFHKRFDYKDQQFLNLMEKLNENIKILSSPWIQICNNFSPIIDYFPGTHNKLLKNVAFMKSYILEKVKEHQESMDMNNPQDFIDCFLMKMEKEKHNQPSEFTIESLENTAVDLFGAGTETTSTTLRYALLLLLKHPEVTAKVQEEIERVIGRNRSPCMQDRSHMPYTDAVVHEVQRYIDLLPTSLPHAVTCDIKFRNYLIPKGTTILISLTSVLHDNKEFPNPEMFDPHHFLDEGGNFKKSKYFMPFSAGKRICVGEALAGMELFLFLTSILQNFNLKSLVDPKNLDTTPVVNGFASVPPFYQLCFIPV

SMILES | IC50 [1] [nM] | IC50 [2] [nM] | CYP3A4 induction activity (Human CYP3A4) | IC50 (Human CYP2C9) [µM] | inhibition against in vivo TNF-α production induced by LPS stimulation [3] [%]
Cc1ccc(-n2nc(C(C)(C)C)cc2NC(=O)Nc2ccc(CN3CCN(C(=O)c4ccc(CN5CCN(C)CC5)cc4)CC3)cc2C)cc1 [Example 13(1), N-[3-t-butyl-1-(4-methylphenyl)-1H-pyrazol-5-yl]-N′-{2-methyl-4-[(4-{4-[(4-methylpiperazin-1-yl)methyl]benzoyl}piperazin-1-yl)methyl]phenyl}urea] | 5.6 | 35 | did not show CYP3A4 induction activity at all | 21 | 
Cc1ccc(-n2nc(C(C)(C)C)cc2NC(=O)Nc2ccc(OC3CCN(C(=O)c4ccc(CN5CCN(C)CC5)cc4)CC3)cc2C)cc1 [Example 17, N-[3-t-butyl-1-(4-methylphenyl)-1H-pyrazol-5-yl]-N′-{2-methyl-4-[(1-{4-[(4-methylpiperazin-1-yl)methyl]benzoyl}piperidin-4-yl)oxy]phenyl}urea] | 3.8 | 17 |  |  | 
Cc1ccc(-n2nc(C(C)(C)C)cc2NC(=O)Nc2ccc(CN3CCC(=O)N(c4ccccc4C)C3)cc2)cc1 [Example 4(1), N-[3-t-butyl-1-(4-methylphenyl)-1H-pyrazol-5-yl]-N′-(4-{[3-(2-methylphenyl)-4-oxotetrahydropyrimidin-1(2H)-yl]methyl}phenyl)urea] | 2.9 | 2.3 |  |  | 72.8
Cc1ccc(-n2nc(C(C)(C)C)cc2NC(=O)Nc2cc(CN3CCN(C(=O)c4ccc(CN5CCN(C)CC5)cc4)CC3)ccc2Cl)cc1 [13(2), N-[3-t-butyl-1-(4-methylphenyl)-1H-pyrazol-5-yl]-N′-{2-chloro-5-[(4-{4-[(4-methylpiperazin-1-yl)methyl]benzoyl}piperazin-1-yl)methyl]phenyl}urea] | 2.5 | 21 |  |  | 
